Measured values taken from patent US11535597B2, “Photoreactive ligands and uses thereof” (The Scripps Research Institute, priority 2017, dated 2022).

Test system: proteins in HEK293T cells
Assay: MS-based mapping of FFF probe-modified peptides (isoTOP, sites of labeling)
Format: binding, human
Procedure, shortened: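 Live cells treated with fragment probes (200-250 μM) in serum-free DMEM, with or without competitor ligands. Proteomes clicked to light/heavy biotin-TEV-azide, streptavidin-enriched, trypsin- then TEV-digested; probe-modified peptides identified by LC-MS/MS with any residue allowed as modified site, isoTOP ratios quantified by CIMAGE.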

SMILES: C#CCCC1(CCC(=O)NC23CC4CC(CC(C4)C2)C3)N=N1 [probe 14, N-((3s,5s,7s)-Adamantan-1-yl)-3-(3-(but-3-yn-1-yl)-3H-diazirin-3-yl)propanamide]
- Labeled Peptide of HLA-A HLAC class I histocompatibility antigen, A-2 alpha (Accession P01892, residues of probe-labeled peptide, family Uncategorized): 46-59
- Labeled Peptide of HMOX2 Heme oxygenase 2 (Accession P30519 (r933 prints P03519), residues of probe-labeled peptide, family Enzymes): 69-87
- Labeled Peptide of GHITM Growth hormone-inducible transmembrane protein (Accession Q9H3K2, residues of probe-labeled peptide, family Uncategorized): 218-240
- Labeled Peptide of GOLPH3 Golgi phophoprotein 3 (Accession Q9H4A6, residues of probe-labeled peptide, family Adapter, Scaffolding, Modulator Proteins): 75-90
- Labeled Peptide of HAUS2 HAUS augmin-like complex subunit 2 (Accession Q9NVX0, residues of probe-labeled peptide, family Adapter, Scaffolding, Modulator Proteins): 173-189
- Labeled Peptide of FUBP1 Far upstream element-binding protein 1 (Accession Q96AE4, residues of probe-labeled peptide, family Transcription factors, Regulators): 593-620
- Labeled Peptide of HAUS1 HAUS augmin-like complex subunit 1 (Accession Q96CS2, residues of probe-labeled peptide, family Adapter, Scaffolding, Modulator Proteins): 94-108
- Labeled Peptide (GOLPH3 Golgi phosphoprotein 3, residues of probe-modified peptide): 75-90
- Labeled Peptide (HLA-A HLA class I histocompatibility antigen, A-2 alpha, residues of probe-modified peptide): 46-59
- Labeled Peptide (HMOX2 Heme oxygenase 2, residues of probe-modified peptide): 69-87
- Labeled Peptide (LIPA Lysosomal acid lipase (P38571), residues of the probe-labeled peptide): 255-270
- Labeled Peptide (MAN2B1 Lysosomal alpha-mannosidase (O00754), residues of the probe-labeled peptide): 291-305
- Labeled Peptide (MCFD2 (Q8NI22), residues of the probe-labeled peptide): 103-126
- Labeled Peptide (MSH2 (P43246), residues of the probe-labeled peptide): 848-871
- Labeled Peptide (MT-ND2 (P03891), residues of the probe-labeled peptide): 264-272
- Labeled Peptide (NDUFS1 (P28331), residues of the probe-labeled peptide): 312-325
- Labeled Peptide (NUP160 (Q12769), residues of the probe-labeled peptide): 638-661
- Labeled Peptide (NUP205 (Q92621), residues of the probe-labeled peptide): 1235-1252
- Labeled Peptide (NUP214 (P35658), residues of the probe-labeled peptide): 770-783
- Labeled Peptide (NUTF2 (P61970), residues of the probe-labeled peptide): 91-106
- Labeled Peptide (NXN Nucleoredoxin (Q6DKJ4), residues of the probe-labeled peptide): 384-403
- Labeled Peptide (P07384 CAPN1 Calpain-1 catalytic subunit): 175-193
- Labeled Peptide (residues) of YWHAQ 14-3-3 protein theta (P27348, peptide TAFDEAIAELDTLNEDSYK, PDB 5IQP): 194-212
- Labeled Peptide (P30519 HMOX2 Heme oxygenase 2): 69-87
- Labeled Peptide (P30520 ADSS Adenylosuccinate synthetase isozyme 2): 431-441
- Labeled Peptide (residues) of PPP1CC Serine/threonine-protein phosphatase PP1-gamma cat (P36873, peptide EIFLSQPILLELEAPLK, PDB 4UT2): 44-60
- Labeled Peptide (P48729 CSNK1A1 Casein kinase I isoform alpha): 84-106
- Labeled Peptide (residues) of RAB7A Ras-related protein Rab-7a (P51149, peptide DEFLIQASPR, PDB 1YHN): 104-113
- Labeled Peptide (P67870 CSNK2B Casein kinase II subunit beta): 112-134
- Labeled Peptide (PCNA (P12004), residues of the probe-labeled peptide): 118-138
- Labeled Peptide (Q8NI60 ADCK3 Chaperone activity of bc1 complex-like, mitochondr): 277-295
- Labeled Peptide (Q9H4A6 GOLPH3 Golgi phosphoprotein 3): 75-90
- Labeled Peptide (residues) of RUVBL2 RuyB-like 2 (Q9Y230, peptide ALESDMAPVLIMATNR, PDB 3UK6): 315-330
- Labeled Peptide (Q13867 BLMH Bleomycin hydrolase): 111-124
- Labeled Peptide (protein ADCK3 (Q8NI60), residues of probe-labeled peptide): 277-295
- Labeled Peptide (protein ADCK3 Chaperone activity of bc1 complex-like, mitochondr, residues of probe-labeled peptide): 277-295
- Labeled Peptide (protein ADSS (P30520), residues of probe-labeled peptide): 431-441
- Labeled Peptide (protein ADSS Adenylosuccinate synthetase isozyme 2, residues of probe-labeled peptide): 431-441
- Labeled Peptide (protein AGK (Q53H12), residues of probe-labeled peptide): 283-304
- Labeled Peptide (protein ALDH18A1 (P54886), residues of probe-labeled peptide): 650-662
- Labeled Peptide (protein ASNA1 (O43681), residues of probe-labeled peptide): 131-153
- Labeled Peptide (protein ATP2A2 (P16615), residues of probe-labeled peptide): 335-352
- Labeled Peptide (protein ATP2B1 (P20020), residues of probe-labeled peptide): 824-840
- Labeled Peptide (protein ATP2B4 (P23634), residues of probe-labeled peptide): 812-828
- Labeled Peptide (protein ATP5B (P06576), residues of probe-labeled peptide): 407-422
- Labeled Peptide (protein ATP6V1B2 (P21281), residues of probe-labeled peptide): 437-457
- Labeled Peptide (protein BLMH (Q13867), residues of probe-labeled peptide): 111-124
- Labeled Peptide (protein BLMH Bleomycin hydrolase, residues of probe-labeled peptide): 111-124
- Labeled Peptide (protein CALM3 Calmodulin (P62158), residues of probe-labeled peptide): 39-75
- Labeled Peptide (protein CALM3 Calmodulin, residues of probe-labeled peptide): 39-75
- Labeled Peptide (protein CAPN1 (P07384), residues of probe-labeled peptide): 175-193
- Labeled Peptide (protein CAPN1 Calpain-1 catalytic subunit, residues of probe-labeled peptide): 175-193
- Labeled Peptide (protein CCDCC51 (Q96ER9), residues of probe-labeled peptide): 86-96
- Labeled Peptide (protein CLPB Caseinolytic peptidase B protein homolog (Q9H078), residues of probe-labeled peptide): 630-650
- Labeled Peptide (protein COX15 Cytochrome coxidase assembly protein COX15 homolo (Q7KZN9), residues of probe-labeled peptide): 296-313
- Labeled Peptide (protein CSNK1A1 Casein kinase I isoform alpha (P48729), residues of probe-labeled peptide): 84-106
- Labeled Peptide (protein CSNK1A1 Casein kinase I isoform alpha, residues of probe-labeled peptide): 84-106
- Labeled Peptide (protein CSNK2B Casein kinase II subunit beta (P67870), residues of probe-labeled peptide): 112-134
- Labeled Peptide (protein CSNK2B Casein kinase II subunit beta, residues of probe-labeled peptide): 112-134
- Labeled Peptide (protein DCAF7 DDB1- and CUL4-associated factor 7 (P61962), residues of probe-labeled peptide): 82-96
- Labeled Peptide (protein FAH Fumarylacetoacetase (P16930), residues of probe-labeled peptide): 242-253
- Labeled Peptide (protein FAM114A2 Protein FAM114A2 (Q9NRY5), residues of probe-labeled peptide): 184-196
- Labeled Peptide (protein O94826 TOMM70A Mitochondrial import receptor subunit TOM70): 475-494
- Labeled Peptide (protein O96008 TOMM40 Mitochondrial import receptor subunit TOM40 homolog): 278-293
- Labeled Peptide (protein P05387 RPLP2 60S acidic ribosomal protein P2): 50-61
- Labeled Peptide (protein P31948 STIP1 Stress-induced-phosphoprotein 1): 416-429
- Labeled Peptide (protein P46977 STT3A Dolichyl-diphosphooligosaccharide--protein glycosy): 330-340
- Labeled Peptide (protein PABPC1 Polyadenylate-binding protein 1, residues of the probe-labeled peptide): 114-129
- Labeled Peptide (protein PCNA Proliferating cell nuclear antigen, residues of the probe-labeled peptide): 118-138
- Labeled Peptide (protein PCYOX1 Prenylcysteine oxidase 1 (Q9UHG3)): 37-54
- Labeled Peptide (protein PHB Prohibitin (P35232)): 241-253
- Labeled Peptide (protein PLS3 Plastin-3 (P13797)): 72-85
- Labeled Peptide (protein PPP1CB Serine/threonine-protein phosphate PP1-alpha cat (P62140)): 43-59
- Labeled Peptide (protein PPP1CC Serine/threonine-protein phosphatase PP1-gamma cat, residues of the probe-labeled peptide): 44-60
- Labeled Peptide (protein PPP1CC Serine/threonine-protein phosphate PP1-gamma cat (P36873)): 44-60
- Labeled Peptide (protein PRPF19 Pre-mRNA-processing factor 19 (Q9UMS4)): 186-196
- Labeled Peptide (protein PSMD3 26S proteasome non-ATPase regulatory subunit 3 (O43242)): 426-440
- Labeled Peptide (protein PTBP1 Polypyrimidine tract-binding protein 1 (P26599)): 219-238
- Labeled Peptide (protein Q8NBX0 SCCPDH Saccharopine dehydrogenase-like oxidoreductase): 145-167
- Labeled Peptide (protein Q8TBP6 SLC25A40 Solute carrier family 25 member 40): 136-152
- Labeled Peptide (protein Q8TCJ2 STT3B Dolichyl-diphosphooligosaccharide--protein glycosy): 692-703
- Labeled Peptide (protein Q9H2D1 SLC25A32 Mitochondrial folate transporter/carrier): 118-145
- Labeled Peptide (protein Q9H4I3 TRABD TraB domain-containing protein): 235-253
- Labeled Peptide (protein Q9H061 TMEM126A Transmembrane protein 126A): 85-105
- Labeled Peptide (protein Q9NS69 TOMM22 Mitochondrial import receptor subunit TOM22 homolog): 106-117
- Labeled Peptide (protein Q9UBX3 SLC25A10 Mitochondrial dicarboxylate carrier): 171-186
- Labeled Peptide (protein Q9Y230 RUVBL2 RuvB-like 2): 315-330
- Labeled Peptide (protein QIL1 Protein QIL1 (Q5XLP0)): 15-36
- Labeled Peptide (protein RAB7A Ras-related protein Rab-7a (P51149)): 104-113
- Labeled Peptide (protein RAB7A Ras-related protein Rab-7a, residues of the probe-labeled peptide): 104-113
- Labeled Peptide (protein RABEPK Rab9 effector protein with kelch motifs (Q7Z6M1)): 87-100
- Labeled Peptide (protein RARS Arginine--tRNA ligase, cytoplasmic (P54136)): 528-540
- Labeled Peptide (protein RARS Arginine--tRNA ligase, cytoplasmic, residues of the probe-labeled peptide): 528-540
- Labeled Peptide (protein RUVBL2 RuvB-like 2, residues of the probe-modified peptide): 315-330
- Labeled Peptide (protein TXNDC17 Thioredoxin domain-containing protein 17, residues of the probe-modified peptide): 4-17
- Labeled Peptide (protein VPS33A Vacuolar protein sorting-associated protein 33A, residues of the probe-modified peptide): 233-262
- Labeled Peptide (protein YWHAQ 14-3-3 protein theta, residues of the probe-modified peptide): 194-212
- Labeled Peptide (residues of probe-labeled peptide on VDAC3 Voltage-dependent anion-slective channel protein, Accession # Q9Y277): 164-174
- Labeled Peptide (residues of probe-labeled peptide on VMP1 Vacuole membrane protein 1, Accession # Q96GC9): 214-243
- Labeled Peptide (residues of probe-labeled peptide on VPS33A Vacuolar protein sorting-associated protein 33A, Accession # Q96AX1): 233-262
- Labeled Peptide (residues of probe-labeled peptide on VPS51 Vacuolar protein sorting-associated protein 51 hom, Accession # Q9UID3): 742-763
- Labeled Peptide (residues of probe-labeled peptide on YWHAQ 14-3-3 protein theta, Accession # P27348): 194-212
